Values belong to the compound of their own block, whether it stands above or below them.
Columns and labels:
Type in all cases: cell-based
hFFA2 [1] = molecular target: T1, hFFA2 (Homo sapiens, UniProt O15552); test: LANCE cAMP assay, U2OS cells
T1 sequence (O15552 1-330): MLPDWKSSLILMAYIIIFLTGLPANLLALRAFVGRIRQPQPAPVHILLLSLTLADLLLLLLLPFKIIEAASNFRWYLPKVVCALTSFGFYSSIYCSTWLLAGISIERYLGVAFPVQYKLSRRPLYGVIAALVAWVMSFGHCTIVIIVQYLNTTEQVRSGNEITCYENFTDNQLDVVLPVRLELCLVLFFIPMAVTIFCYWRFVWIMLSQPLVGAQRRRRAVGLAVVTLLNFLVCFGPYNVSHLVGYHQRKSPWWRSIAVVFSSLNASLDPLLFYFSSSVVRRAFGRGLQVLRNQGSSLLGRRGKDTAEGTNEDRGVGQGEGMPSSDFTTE

hFFA2 [2] = molecular target: T1, hFFA2; test: yeast reporter assay, antagonism
hFFA2 [3] = molecular target: T1, hFFA2; test: yeast reporter assay, operational model fit
hFFA2 [4] = molecular target: T1, hFFA2; test: yeast FUS1-HIS3 reporter growth assay

EC50 (hFFA2 [1]): 126000 nM
Compound: CC(=O)O [C2, acetate]

Kb (hFFA2 [2]): 501 nM
Compound: O=C(N[C@@H](Cc1c[nH]c2ccccc12)C(=O)O)c1ccc(Cl)cc1 [N-CBT, N-(4-Chlorobenzoyl)-L-tryptophan]

Kd (hFFA2 [3]): 155 nM
Compound: O=C(O)C[C@H](C(=O)Nc1nc(-c2ccccc2Cl)cs1)c1ccccc1 [compound 9, (S)-4-(4-(2-chlorophenyl)thiazol-2-ylamino)-4-oxo-3-phenylbutanoic acid]

IC50 (hFFA2 [4]): 186 nM
Compound: CN(C(=O)[C@H]1CCCC[C@H]1C(=O)O)c1nc(-c2ccccc2Cl)cs1 [compound 101, cis-2-((4-(2-chlorophenyl)thiazol-2-yl)(methyl)carbamoyl)cyclohexaneccarboxylic acid]

Reference: article PMC4492757 (Pharmacology Research & Perspectives, 2015)
